Experimental data from patent publication US20230146675A1, “PYRIMIDO[5,4-d]PYRIMIDINE DERIVATIVES AS ENT INHIBITORS FOR THE TREATMENT OF CANCERS, AND COMBINATION THEREOF WITH ADENOSINE RECEPTOR ANTAGONISTS” (ITEOS BELGIUM SA, priority 2020, published 2023).

Target: T1, human ENT1 (Homo sapiens, UniProt Q99808)
T1 sequence (Q99808 1-456): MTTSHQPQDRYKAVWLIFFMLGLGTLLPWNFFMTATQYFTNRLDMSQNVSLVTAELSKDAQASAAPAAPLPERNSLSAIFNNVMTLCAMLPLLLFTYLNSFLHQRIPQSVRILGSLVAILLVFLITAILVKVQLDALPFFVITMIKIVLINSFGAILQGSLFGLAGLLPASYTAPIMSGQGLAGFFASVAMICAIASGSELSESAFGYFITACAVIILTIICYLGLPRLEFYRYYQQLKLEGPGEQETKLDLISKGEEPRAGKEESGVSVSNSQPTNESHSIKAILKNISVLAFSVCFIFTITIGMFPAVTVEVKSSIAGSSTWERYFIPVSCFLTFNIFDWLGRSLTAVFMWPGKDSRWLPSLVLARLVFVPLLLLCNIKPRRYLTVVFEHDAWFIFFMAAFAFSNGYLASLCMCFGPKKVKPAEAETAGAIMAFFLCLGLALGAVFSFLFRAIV
Experiment: ENT1 binding assay (competition with Sahenta-DY647 on JAR cells)
Parameters: JAR cells expressing ENT1 were bought from ATCC; host or cells: JAR cells
Settings: binned IC50
Outline: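 JAR cells were incubated with test compounds and the fluorescent ligand Sahenta-DY647 in competition. Plates were washed twice by centrifugation (4 min, 400 rcf, 4 °C). Binding potency was derived from the final fluorescence.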

Row | IC50 [nM] | SMILES
1 | 500 to 1000 | COCCN(CCOC)c1nc(N2CCC(OC)CC2)c2nc(N(CCOC)CCOC)nc(NCCCc3ccccn3)c2n1 [Compound 177, N2,N2,N6,N6-tetrakis(2-methoxyethyl)-8-(4-methoxypiperidin-1-yl)-N4-(3-(pyridin-2-yl)propyl)pyrimido[5,4-d]pyrimidine-2,4,6-triamine]
2 | 500 to 1000 | COCCN(CCOC)c1nc(N2CCC(OC)CC2)c2nc(N(CCOC)CCOC)nc(NCCC(C)(C)O)c2n1 [Compound 178, 4-((2,6-bis(bis(2-methoxyethyl)amino)-8-(4-methoxypiperidin-1-yl)pyrimido[5,4-d]pyrimidin-4-yl)amino)-2-methylbutan-2-ol]
3 | 100 to 500 | COCCN(CCOC)c1nc(N2CCC(OC)CC2)c2nc(N(CCOC)CCOC)nc(NCCCCC#N)c2n1 [Compound 179, 5-((2,6-bis(bis(2-methoxyethyl)amino)-8-(4-methoxypiperidin-1-yl)pyrimido[5,4-d]pyrimidin-4-yl)amino)pentanenitrile]
4 | 500 to 1000 | COCCN(CCOC)c1nc(N2CCC(OC)CC2)c2nc(N(CCOC)CCOC)nc(NCCCNS(C)(=O)=O)c2n1 [Compound 180, N-(3-((2,6-bis(bis(2-methoxyethyl)amino)-8-(4-methoxypiperidin-1-yl)pyrimido[5,4-d]pyrimidin-4-yl)amino)propyl)methanesulfonamide]
5 | 500 to 1000 | COCCCCNc1nc(N(CCOC)CCOC)nc2c(N3CCC(OC)CC3)nc(N(CCOC)CCOC)nc12 [Compound 181, N4-(4-methoxybutyl)-N2,N2,N6,N6-tetrakis(2-methoxyethyl)-8-(4-methoxypiperidin-1-yl)pyrimido[5,4-d]pyrimidine-2,4,6-triamine]
6 | 500 to 1000 | COCCN(CCOC)c1nc(N2CCC(OC)CC2)c2nc(N(CCOC)CCOC)nc(NCCCCCC#N)c2n1 [Compound 182, 6-((2,6-bis(bis(2-methoxyethyl)amino)-8-(4-methoxypiperidin-1-yl)pyrimido[5,4-d]pyrimidin-4-yl)amino)hexanenitrile]
7 | < 100 | COCCN(CCOC)c1nc(N2CCC(OC)CC2)c2nc(N(CCOC)Cc3ccc(OC)c(OC)c3OC)nc(N3CCC(OC)CC3)c2n1 [Compound 183, N2,N2,N6-tris(2-methoxyethyl)-4,8-bis(4-methoxypiperidin-1-yl)-N6-(2,3,4-trimethoxybenzyl)pyrimido[5,4-d]pyrimidine-2,6-diamine]
8 | < 100 | COCCN(CCOC)c1nc(N2CCC(OC)CC2)c2nc(N(CCO)Cc3ccc(OC)c(OC)c3OC)nc(N3CCC(OC)CC3)c2n1 [Compound 185, 2-((6-(bis(2-methoxyethyl)amino)-4,8-bis(4-methoxypiperidin-1-yl)pyrimido[5,4-d]pyrimi<din-2-yl)(2,3,4-trimethoxybenzyl)amino)ethanol]
9 | 100 to 500 | COCCN(CCOC)c1nc(N2CCN(C)C(=O)C2)c2nc(N(CCOC)CCOC)nc(N3CCN(C)C(=O)C3)c2n1 [Compound 187, 4,4′-(2,6-bis(bis(2-methoxyethyl)amino)pyrimido[5,4-d]pyrimidine-4,8-diyl)bis(1-methylpiperazin-2-one)]
10 | 100 to 500 | COCCN(CCOC)c1nc(N2CCN(C)C(=O)C2)c2nc(N(CCOC)CCOC)nc(N3CCS(=O)(=O)CC3)c2n1 [Compound 188, 4-(2,6-bis(bis(2-methoxyethyl)amino)-8-(1,1-dioxidothiomorpholino)pyrimido[5,4-d]pyrimidin-4-yl)-1-methylpiperazin-2-one]
11 | 100 to 500 | COCCN(CCOC)c1nc(N2CC(O)(C(F)(F)F)C2)c2nc(N(CCOC)CCOC)nc(N3CCN(C)C(=O)C3)c2n1 [Compound 189, 4-(2,6-bis(bis(2-methoxyethyl)amino)-8-(3-hydroxy-3-(trifluoromethyl)azetidin-1-yl)pyrimido[5,4-d]pyrimidin-4-yl)-1-methylpiperazin-2-one]
12 | < 100 | COCCN(CCOC)c1nc(N2CCN(C)C(=O)C2)c2nc(N(CCOC)CCOC)nc(NCc3ccccc3)c2n1 [Compound 190, 4-(8-(benzylamino)-2,6-bis(bis(2-methoxyethyl)amino)pyrimido[5,4-d]pyrimidin-4-yl)-1-methylpiperazin-2-one]
13 | 100 to 500 | CCCN(C)c1nc(N(CCOC)CCOC)nc2c(N3CCN(C)C(=O)C3)nc(N(CCOC)CCOC)nc12 [Compound 191, 4-(2,6-bis(bis(2-methoxyethyl)amino)-8-(methyl(propyl)amino)pyrimido[5,4-d]pyrimidin-4-yl)-1-methylpiperazin-2-one]
14 | 100 to 500 | COCCN(CCOC)c1nc(N2CC(O)(C(F)(F)F)C2)c2nc(N(CCOC)CCOC)nc(N3CCS(=O)(=O)CC3)c2n1 [Compound 192, 4-(2,6-bis(bis(2-methoxyethyl)amino)-8-(3-hydroxy-3-(trifluoromethyl)azetidin-1-yl)pyrimido[5,4-d]pyrimidin-4-yl)thiomorpholine 1,1-dioxide]
15 | 100 to 500 | COCCN(CCOC)c1nc(N2CC(O)(C(F)(F)F)C2)c2nc(N(CCOC)CCOC)nc(N3CCn4ncnc4C3)c2n1 [Compound 193, 1-(2,6-bis(bis(2-methoxyethyl)amino)-8-(5,6-dihydro-[1,2,4]triazolo[1,5-a]pyrazin-7(8H)-yl)pyrimido[5,4-d]pyrimidin-4-yl)-3-(trifluoromethyl)azetidin-3-ol]
16 | 100 to 500 | COCCN(CCOC)c1nc(N2CCC(F)(F)CC2)c2nc(N(CCOC)CCOC)nc(N3CCC(F)(F)CC3)c2n1 [Compound 195, 4,8-bis(4,4-difluoropiperidin-1-yl)-N2,N2,N6,N6-tetrakis(2-methoxyethyl)pyrimido[5,4-d]pyrimidine-2,6-diamine]
17 | 100 to 500 | COCCN(CCOC)c1nc(N2CCN(c3ncn(C)n3)CC2)c2nc(N(CCOC)CCOC)nc(N3CCC(OC)CC3)c2n1 [Compound 196, N2,N2,N6,N6-tetrakis(2-methoxyethyl)-4-(4-methoxypiperidin-1-yl)-8-(4-(1-methyl-1H-1,2,4-triazol-3-yl)piperazin-1-yl)pyrimido[5,4-d]pyrimidine-2,6-diamine]
18 | 500 to 1000 | COCCN(CCOC)c1nc(N2CCC(OC)CC2)c2nc(N(CCOC)CCC(N)=O)nc(N3CCC(OC)CC3)c2n1 [Compound 197, 3-((6-(bis(2-methoxyethyl)amino)-4,8-bis(4-methoxypiperidin-1-yl)pyrimido[5,4-d]pyrimidin-2-yl)(2-methoxyethyl)amino)propanamide]
19 | 100 to 500 | CCN1CCN(c2nc(N(CCOC)CCOC)nc3c(N4CCC(OC)CC4)nc(N(CCOC)CCOC)nc23)CC1=O [Compound 198, 4-(2,6-bis(bis(2-methoxyethyl)amino)-8-(4-methoxypiperidin-1-yl)pyrimido[5,4-d]pyrimidin-4-yl)-1-ethylpiperazin-2-one]
20 | < 100 | CCOCCN(CCOCC)c1nc(N2CCN(C)C(=O)C2)c2nc(N(CCOCC)CCOCC)nc(N3CCC(OC)CC3)c2n1 [Compound 199, 4-(2,6-bis(bis(2-ethoxyethyl)amino)-8-(4-methoxypiperidin-1-yl)pyrimido[5,4-d]pyrimidin-4-yl)-1-methylpiperazin-2-one]
21 | < 100 | COCCN(CCOC)c1nc(N2CCC(F)(F)CC2)c2nc(N(CCOC)CCOC)nc(N3CCC(OC)CC3)c2n1 [Compound 200, 4-(4,4-difluoropiperidin-1-yl)-N2,N2,N6,N6-tetrakis(2-methoxyethyl)-8-(4-methoxypiperidin-1-yl)pyrimido[5,4-d]pyrimidine-2,6-diamine]
22 | 100 to 500 | COCCN(CCOC)c1nc(N2CCC(C)(OC)CC2)c2nc(N(CCOC)CCOC)nc(N3CCC(C)(OC)CC3)c2n1 [Compound 201, 4,8-bis(4-methoxy-4-methylpiperidin-1-yl)-N2,N2,N6,N6-tetrakis(2-methoxyethyl)pyrimido[5,4-d]pyrimidine-2,6-diamine]
23 | 500 to 1000 | COCCOC1CCN(c2nc(N(CCOC)CCOC)nc3c(N4CCC(OC)CC4)nc(N(CCOC)CCOC)nc23)CC1 [Compound 202, 4-(4-(2-methoxyethoxy)piperidin-1-yl)-N2,N2,N6,N6-tetrakis(2-methoxyethyl)-8-(4-methoxypiperidin-1-yl)pyrimido[5,4-d]pyrimidine-2,6-diamine]
24 | 100 to 500 | COCCN(CCOC)c1nc(N2CCN(C)C(=O)C2)c2nc(N(CCOC)CCOC)nc(NCc3cccc(C(N)=O)c3)c2n1 [Compound 203, 3-(((2,6-bis(bis(2-methoxyethyl)amino)-8-(4-methyl-3-oxopiperazin-1-yl)pyrimido[5,4-d]pyrimidin-4-yl)amino)methyl)benzamide]
25 | 100 to 500 | COCCN(CCOC)c1nc(N2CCN(C)C(=O)C2)c2nc(N(CCOC)CCOC)nc(NCc3cccc(S(N)(=O)=O)c3)c2n1 [Compound 204, 3-(((2,6-bis(bis(2-methoxyethyl)amino)-8-(4-methyl-3-oxopiperazin-1-yl)pyrimido[5,4-d]pyrimidin-4-yl)amino)methyl)benzenesulfonamide]
26 | < 100 | COCCN(CCOC)c1nc(N2CCN(C)C(=O)C2)c2nc(N(CCOC)CCOC)nc(NCc3cccc(C#N)c3)c2n1 [Compound 205, 3-(((2,6-bis(bis(2-methoxyethyl)amino)-8-(4-methyl-3-oxopiperazin-1-yl)pyrimido[5,4-d]pyrimidin-4-yl)amino)methyl)benzonitrile]
27 | < 100 | COCCN(CCOC)c1nc(N2CCN(C)C(=O)C2)c2nc(N(CCOC)CCOC)nc(N3CCC(F)(F)CC3)c2n1 [Compound 206, 4-(2,6-bis(bis(2-methoxyethyl)amino)-8-(4,4-difluoropiperidin-1-yl)pyrimido[5,4-d]pyrimidin-4-yl)-1-methylpiperazin-2-one]
